{"source": "patent US10869929B2", "about": "“Phosphonate linkers and their use to facilitate cellular retention of compounds” (priority 2016, dated 2020)", "key": {"glucocorticoid receptor": {"target": "glucocorticoid receptor (Homo sapiens (Human), UniProt P04150)", "sequence (P04150 whole entry)": "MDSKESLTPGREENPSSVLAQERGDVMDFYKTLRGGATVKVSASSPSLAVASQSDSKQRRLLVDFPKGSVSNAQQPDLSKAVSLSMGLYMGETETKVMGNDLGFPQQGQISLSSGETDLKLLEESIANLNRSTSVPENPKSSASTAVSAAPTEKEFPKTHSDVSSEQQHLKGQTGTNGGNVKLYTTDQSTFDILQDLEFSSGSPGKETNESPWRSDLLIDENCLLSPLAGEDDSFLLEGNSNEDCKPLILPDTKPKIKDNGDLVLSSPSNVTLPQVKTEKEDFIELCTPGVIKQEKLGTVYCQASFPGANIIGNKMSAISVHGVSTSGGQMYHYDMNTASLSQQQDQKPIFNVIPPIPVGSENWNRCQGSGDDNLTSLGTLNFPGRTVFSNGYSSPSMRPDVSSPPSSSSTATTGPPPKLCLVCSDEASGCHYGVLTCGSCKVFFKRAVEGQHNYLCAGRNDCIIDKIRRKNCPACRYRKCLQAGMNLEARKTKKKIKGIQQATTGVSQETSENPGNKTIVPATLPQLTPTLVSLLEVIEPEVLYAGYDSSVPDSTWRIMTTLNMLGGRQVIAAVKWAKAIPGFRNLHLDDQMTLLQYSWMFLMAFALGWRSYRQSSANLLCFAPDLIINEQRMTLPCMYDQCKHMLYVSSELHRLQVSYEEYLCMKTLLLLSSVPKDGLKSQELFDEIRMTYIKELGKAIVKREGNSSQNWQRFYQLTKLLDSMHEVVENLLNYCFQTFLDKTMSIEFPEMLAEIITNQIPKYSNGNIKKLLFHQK", "experiment": "PolarScreen Glucocorticoid Receptor Competitor Assay (GR binding)", "settings": "fluormone GS red, GR full length protein; read-out: GR Bind IC50", "protocol": "The potency of binding to glucocorticoid receptor by small molecule compounds was measured with the PolarScreen™ Glucocorticoid Receptor Competitor Assay Kit, Red (Life Technology, Catalog #A15898) according to the procedure in the kit. In brief, after compounds were diluted and transferred into assay plates, the fluormone GS red and GR full length protein were subsequently added into the assay plates, along with the positive and negative controls. The samples were mixed on a shaker for 1 minute and then the plates were incubated at room temperature for 2-4 hours with minimal light exposure. The plates were read with an Envision and the relative fluorescent signals were calculated. The data were plotted in GraphPad Prism and the EC50 values were calculated with non-linear regression curve fit of the data in GraphPad Prism."}, "GILZ gene": {"tested_on": "GILZ gene", "experiment": "GILZ gene assay (qPCR, HUT78 / 786-O cells)", "assay_type": "cell-based", "protocol": "GILZ gene assays were conducted as follows. HUT78 cells were cultured in IMEM plus 20% heat inactivated FBS and cell density was maintained between 0.1 to 1.2 million/mL. 786-O cells were cultured in RPMI plus 10% heat inactivated FBS. Actively growing cells were harvested and resuspended in HBSS with 2% FBS at 1.1 million cells per mL then dispensed to 384-well V-bottom plates at 45 μL per well. Serially diluted ADC solution was added to the cell plate (5 μL per well) and mixed for 2 min. Cells were then cultured at 37° C., at 5% CO2 for a designated time before supernatant was removed. Cells were harvested in lysis buffer from the Cells-to-Ct kit (40 μL, Life Technologies, 4391851C) following the supplier's protocol and mixed for 10 min followed by addition of 5 μL per well of stop solution from the kit. cDNA was synthesized with a reverse transcription kit (Life Technologies, 4391852C) follow by qPCR using the TaqMan gene expression master mix (Life Technologies, 4369016) with GILZ gene assay (Life Technologies, Hs00608272_m1) and GAPDH assay (Hs2758991_g1) in a duplex format with 3-4 technical replicates."}, "MDCKII cells": {"tested_on": "MDCKII cells", "experiment": "Apparent permeability in MDCKII cells", "assay_type": "in vitro ADME", "settings": "1 μM, t=3 hr, average of A to B and B to A Papp", "protocol": "Determination of apparent permeability was as follows. MDCKII cells (kindly provided by the Netherlands Cancer Institute, under a licensing agreement) were seeded on to 96-well transwell culture plates (Millipore Corp, Billerica, Mass.) and used in experiments after five days in culture. […] Substrate solution (150 μL) was added to either the apical (A) or the basolateral (B) compartment of the culture plate, and buffer (150 μL; HBSS, 10 mM HEPES, pH 7.4) with 10 μM cyclosporine A was added to the compartment opposite to that containing the substrate. At t=3 hr, 50 μL samples were removed from both sides of monolayers dosed with test compound and placed in 96 well plates, 50 μL internal standard (1 μM labetolol) and 100 μL HBSS was added to the samples. Samples were analyzed by LC/MS/MS using an Applied Biosystems SCIEX API 5000 triple quadruple mass spectrometer (Concord, ON, Canada) with a TurbolonSpray ion source in the positive ion mode. A Thermo Scientific Transcend LX-2 system (Franklin, Mass.) was coupled to the API 5000 with a flow rate of 800 μL/min to direct sample into the mass spectrometer.\nPapp was expressed as 10^−6 cm/s."}, "ZBTB16 mRNA": {"tested_on": "ZBTB16 mRNA", "experiment": "Up-regulation of ZBTB16 mRNA in primary human B cells", "assay_type": "cell-based", "method": "The carrier solution for all ADCs and naked antibodies was 50 mM histidine pH 6.0, 100 mM NaCl and 5% trehelose. To assure consistency across experiments, ADCs were thawed on ice, dispensed to small aliquots, frozen to −80° C., and those aliquots were then used for experiments with unused material discarded at the end of the day. For all in vitro studies in this report, none of the read outs were measurably different in the presence or absence of the carrier solution. Nevertheless, the final concentration of antibody carrier solution was maintained constant at 1% v/v by serially diluting antibody solution prior to addition to the assay mixture and adding carrier solution to control wells.\nFor the studies of ADCs bearing reduced permeability payloads frozen human CD19+ B cells purchased from Precision Biosciences (catalog #84400, donor #13108) were thawed and re-suspended in RPMI1640 plus 10% heat-inactivated FBS (cell culture medium) at 1 million cells/mL. […] B cells were bulk treated in a 96-well block and subsequently dispensed to 96 well plates (100 μL and […] cells per well) and incubated at 37° C., 5% CO2 for 18 or 40 hr. Control wells containing equal percentages of DMSO (0.1%) and ADC buffer (1%) as sample wells were included. Cells were transferred to a 96 well v-bottom plate and spun at 500×g for 5 min. Medium was removed and cells were lysed in 150 μL RLT buffer containing beta-mercaptoethanol. RNA was isolated (RNeasy 96 kit, Qiagen, Cat #74181) and cDNA was synthesized (iScript cDNA Synthesis Kit, BioRad, Cat #170-8891) according to the supplier's protocol. Quantitative PCR was performed on Applied Biosystem's 7900 HT Real-Time PCR System to measure expression of ZBTB16 (Life Technologies, Hs00957433_m1) and GAPDH (Life Technologies, Hs02758991_g1) in duplex format.\nThe ΔΔCt method was used to calculate fold change of expression of ZBTB16 relative to control sample, using 3 replicates per treatment condition. For free cell impermeable compounds, B cells were seeded at 100,000 cells/well in 90 μL in a 96-well flat bottom plate. Three fold serial dilutions were performed in DMSO, subsequent intermediate 10× stocks were made in tissue-culture medium and then added to the cell plate (10 μL/well). Cells were incubated at 37° C., 5% CO2 for 18 hr, harvested and processed for PCR as described above. EC50 curves were calculated using Graph Pad Prism 6 software using nonlinear fit (agonist) vs. response-variable slope (four parameters) calculation.\nPotency and maximum activity of reduced permeability glucocorticoids (free payload) and the corresponding anti-CD74-drug conjugates on up-regulation of ZBTB16 mRNA levels in primary human B cells in vitro."}}, "data": [{"smiles": "C[C@@H]1C[C@H]2[C@@H]3C[C@H](F)C4=CC(=O)C=C[C@]4(C)[C@@]3(F)[C@@H](O)C[C@]2(C)[C@@]1(OC(=O)CCCCCCCCP(=O)(O)O)C(=O)SCF", "note": "[Compound 18, (9-(((6S,8S,9R,10S,11S,13S,14S,16R,17R)-6,9-difluoro-17-(((fluoromethyl)thio)carbonyl)-11-hydroxy-10,13,16-trimethyl-3-oxo-6,7,8,9,10,11,12,13,14,15,16,17-dodecahydro-3H-cyclopenta[a]phenanthren-17-yl)oxy)-9-oxononyl)phosphonic acid]", "values": [{"measurement": "IC50", "setting": "glucocorticoid receptor", "value": 0.1, "unit": "nM"}, {"measurement": "GILZ Max", "setting": "GILZ gene; at 10 uM", "value": "65% (at"}, {"measurement": "EC50", "setting": "GILZ gene; read-out: GILZ EC50", "value": 3.04, "unit": "µM"}, {"measurement": "MDCK Permeability (cm × 10−6/sec)", "setting": "MDCKII cells", "value": "<0.9", "unit": "cm × 10−6/sec"}, {"measurement": "ZBTB16 mRNA Max relative to free fluticasone", "setting": "ZBTB16 mRNA", "value": ">77", "unit": "%"}, {"measurement": "EC50", "setting": "ZBTB16 mRNA; B-cell, free payload", "value": 3.2, "unit": "µM"}]}]}
